The subject of experiment [1] is hyaluronic acid synthase gene HAS2. In words: Expression of hyaluronic acid synthase gene HAS2, keratinocyte monolayer culture, real-time PCR. To be noted: human epidermal keratinocytes; final retinol concentration 10^−6 M or 10^−5 M; 6, 24 or 48 hours; Experimental Example 1. The experiment is classed as cell-based. How it is done:
(§1) Human epidermal keratinocytes (Cell Application Inc.) were seeded in a 24-well plate containing a human epidermal keratinocytes growth medium (Cell Application Inc.) so that the number of cells contained in a well was 1.5×10^5, and were cultured under the condition of 5% CO2-95% air and at 37° C. for about two days until the cells reached confluence.
(§2) Meanwhile, each tested substance was dissolved in a small amount of dimethylformamide and added to the medium, and the concentration of dimethylformamide in all experiments was adjusted to 0.1 wt %.
(§3) After culturing for a given time period, the keratinocytes were recovered and RNA was extracted therefrom. Then, the gene expression of hyaluronic acid synthases HAS2 and HAS3 were assessed by real-time PCR using the following primer pairs (Takara Bio Inc.): […]

For experiment [2], the system named is hyaluronic acid synthase gene HAS3. In words: Expression of hyaluronic acid synthase gene HAS3, keratinocyte monolayer culture, real-time PCR. The experiment is classed as cell-based. To be noted: human epidermal keratinocytes; final retinol concentration 10^−6 M or 10^−5 M; 6, 24 or 48 hours; Experimental Example 1. How it is done:
as §1, §2, §3

Turning to `CC(=O)OC/C=C(C)/C=C/C=C(C)/C=C/C1=C(C)CCCC1(C)C` [acetic acid retinol ester], in experiment [1], the “level of HAS2 gene expression (ratio to PPIA, control after 6 hours = 1)” value is reported as “lower levels of gene expression as compared to the retinol-modified collagen”. For the same compound, the “level of HAS3 gene expression (ratio to PPIA, control after 6 hours = 1)” value in experiment [2] is reported as “lower levels of gene expression as compared to the retinol-modified collagen”.
On to `CCCCCCCCCCCCCCCC(=O)OC/C=C(C)/C=C/C=C(C)/C=C/C1=C(C)CCCC1(C)C` [palmitic acid retinol ester], for which the “level of HAS2 gene expression (ratio to PPIA, control after 6 hours = 1)” value in experiment [1] is on record as “lower levels of gene expression as compared to the retinol-modified collagen”. Further, the “level of HAS3 gene expression (ratio to PPIA, control after 6 hours = 1)” value in experiment [2] is on record as “lower levels of gene expression as compared to the retinol-modified collagen”.

(Values after US9238688B2 (priority 2010, dated 2016).)
